According to patent US20250353891A1 (MEDIMMUNE LIMITED, priority 2022, published 2025):
pEC50: −log10 of the molar value. Starred links: 1 amine or outer side, 2 acyl side, 3 side chain; linkers in the order of their positions; H or OH if unused. Non-standard residues stand in square brackets, D forms with d. Residues, ends and D or L forms follow the SMILES beside them. Groups on a side chain read outwards from the residue. *: point of attachment. C20 diacid = O=C(O)CCCCCCCCCCCCCCCCCCC(=O)*; C18 diacid = O=C(O)CCCCCCCCCCCCCCCCC(=O)*; γGlu = O=C(O)[C@H](CCC(=O)[*:2])N[*:1]; αMeF = C[C@](N)(Cc1ccccc1)C(=O)O; AEEA = NCCOCCOCC(=O)O; Aib = CC(C)(N)C(=O)O

What was measured:
[1] = biological target: human GLP-1 receptor (hGLP-1R) (Homo sapiens, UniProt P43220); assay: cAMP production (HTRF) in CHO cells expressing hGLP-1R; assay type: cell-based; set-up: expressed in transfected cells; conditions: for pEC50: Table 6, peptides modified at position 17, cAMP in CHO hGLP-1R cells, geometric mean, read-out: hGLP-1R EC50; for % Relative Potency Ratio: Table 6, % GLP-1R activity relative to GLP-1 / % GlucR activity relative to glucagon
Chain of human GLP-1 receptor (hGLP-1R) (P43220 24-463): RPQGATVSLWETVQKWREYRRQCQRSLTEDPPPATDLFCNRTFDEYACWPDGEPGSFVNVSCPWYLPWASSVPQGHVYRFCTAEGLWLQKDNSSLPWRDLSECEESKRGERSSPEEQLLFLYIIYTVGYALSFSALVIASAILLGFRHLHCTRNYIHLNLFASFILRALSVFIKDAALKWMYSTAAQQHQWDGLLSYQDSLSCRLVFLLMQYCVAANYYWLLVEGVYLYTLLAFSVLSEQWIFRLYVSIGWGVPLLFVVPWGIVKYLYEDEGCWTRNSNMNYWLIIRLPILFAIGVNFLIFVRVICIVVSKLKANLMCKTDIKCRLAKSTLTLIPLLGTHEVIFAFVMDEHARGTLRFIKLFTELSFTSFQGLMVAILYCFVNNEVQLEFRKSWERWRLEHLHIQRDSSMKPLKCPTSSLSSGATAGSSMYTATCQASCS
Method in brief: (§1)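 Potency values represent EC50 from 4-parameter logistic curves of HTRF % Delta F signal. Receptor-expressing CHO cells (hGCGR 2×10^5 cells/mL, hGLP-1R 1×10^5 cells/mL) were exposed for 30 min at room temperature before two-step cAMP detection.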

[2] = biological target: human glucagon receptor (hGCGR) (Homo sapiens, UniProt P47871); assay: cAMP production (HTRF) in CHO cells expressing hGCGR; assay type: cell-based; set-up: expressed in transfected cells; conditions: Table 6, peptides modified at position 17; cAMP in CHO hGCGR cells; geometric mean; read-out: hGluc-R EC50
Chain of human glucagon receptor (hGCGR) (P47871 26-477): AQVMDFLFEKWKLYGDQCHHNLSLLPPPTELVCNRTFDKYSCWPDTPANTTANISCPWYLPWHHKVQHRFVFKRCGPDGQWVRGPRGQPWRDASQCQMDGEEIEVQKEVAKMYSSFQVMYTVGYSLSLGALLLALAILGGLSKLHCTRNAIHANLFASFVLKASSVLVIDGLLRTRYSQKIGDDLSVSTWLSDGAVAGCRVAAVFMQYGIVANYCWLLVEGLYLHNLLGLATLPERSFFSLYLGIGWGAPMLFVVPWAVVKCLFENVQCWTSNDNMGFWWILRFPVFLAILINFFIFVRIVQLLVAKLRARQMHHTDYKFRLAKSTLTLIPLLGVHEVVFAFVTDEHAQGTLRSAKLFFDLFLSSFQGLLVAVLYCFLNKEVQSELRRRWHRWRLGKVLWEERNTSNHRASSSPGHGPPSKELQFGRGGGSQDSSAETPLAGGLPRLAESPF
Method in brief: as §1

SMILES | pEC50 [1] | % Relative Potency Ratio [1] | pEC50 [2]
CC(C)C[C@H](NC(=O)[C@H](Cc1c[nH]c2ccccc12)NC(=O)[C@H](C)NC(=O)[C@@H](NC(=O)[C@H](Cc1ccccc1)NC(=O)[C@H](CC(=O)O)NC(=O)[C@H](CCC(N)=O)NC(=O)[C@H](C)NC(=O)[C@H](CCCNC(=N)N)NC(=O)[C@H](CCCCNC(=O)COCCOCCNC(=O)COCCOCCNC(=O)CC[C@H](NC(=O)CC[C@H](NC(=O)CCCCCCCCCCCCCCCCCCC(=O)O)C(=O)O)C(=O)O)NC(=O)[C@@H](NC(=O)[C@H](CC(=O)O)NC(=O)[C@H](CC(C)C)NC(=O)[C@](C)(Cc1ccccc1)NC(=O)[C@H](CCCCN)NC(=O)[C@H](CO)NC(=O)[C@@H](NC(=O)[C@H](CC(=O)O)NC(=O)[C@H](CO)NC(=O)[C@@H](NC(=O)[C@H](Cc1ccccc1)NC(=O)[C@@H](NC(=O)CNC(=O)[C@H](CCC(N)=O)NC(=O)C(C)(C)NC(=O)[C@@H](N)Cc1c[nH]cn1)[C@@H](C)O)[C@@H](C)O)C(C)C)[C@@H](C)O)C(C)C)C(=O)N[C@@H](CCC(=O)O)C(=O)N[C@@H](C)C(=O)NC(C)(C)C(=O)NCC(=O)O [Peptide 418] (H-H[Aib]QGTFTSDVSK[αMeF]LDTK([AEEA-AEEA-γGlu-γGlu-C20 diacid])RAQDFVAWLEA[Aib]G-OH; N-terminus assumed) | 10.06 | 5.0 | 9.65
CC(C)C[C@H](NC(=O)[C@H](Cc1c[nH]c2ccccc12)NC(=O)[C@H](CCCNC(=N)N)NC(=O)[C@@H](NC(=O)[C@H](Cc1ccccc1)NC(=O)[C@H](CC(=O)O)NC(=O)[C@H](CCC(N)=O)NC(=O)[C@H](C)NC(=O)[C@H](CCCNC(=N)N)NC(=O)[C@H](CCCCNC(=O)COCCOCCNC(=O)COCCOCCNC(=O)CC[C@H](NC(=O)CCCCCCCCCCCCCCCCC(=O)O)C(=O)O)NC(=O)[C@@H](NC(=O)[C@H](CC(=O)O)NC(=O)[C@H](CC(C)C)NC(=O)[C@](C)(Cc1ccccc1)NC(=O)[C@H](CCCCN)NC(=O)[C@H](CO)NC(=O)[C@@H](NC(=O)[C@H](CC(=O)O)NC(=O)[C@H](CO)NC(=O)[C@@H](NC(=O)[C@H](Cc1ccccc1)NC(=O)[C@@H](NC(=O)CNC(=O)[C@H](CCC(N)=O)NC(=O)C(C)(C)NC(=O)[C@@H](N)Cc1c[nH]cn1)[C@@H](C)O)[C@@H](C)O)C(C)C)[C@@H](C)O)C(C)C)C(=O)N[C@@H](CCC(=O)O)C(=O)NC(C)(C)C(=O)N[C@@H](CCC(=O)O)C(=O)O [Peptide 419] (H-H[Aib]QGTFTSDVSK[αMeF]LDTK([AEEA-AEEA-γGlu-C18 diacid])RAQDFVRWLE[Aib]E-OH; N-terminus assumed) | 10.01 | 5.4 | 9.58
CC(C)C[C@H](NC(=O)[C@H](Cc1c[nH]c2ccccc12)NC(=O)[C@H](CCCNC(=N)N)NC(=O)[C@@H](NC(=O)[C@H](Cc1ccccc1)NC(=O)[C@H](CC(=O)O)NC(=O)[C@H](CCC(N)=O)NC(=O)[C@H](C)NC(=O)[C@H](CCCNC(=N)N)NC(=O)[C@H](CCCCNC(=O)COCCOCCNC(=O)COCCOCCNC(=O)CC[C@H](NC(=O)CCCCCCCCCCCCCCCCC(=O)O)C(=O)O)NC(=O)[C@H](CCCCN)NC(=O)[C@H](CC(=O)O)NC(=O)[C@H](CC(C)C)NC(=O)[C@](C)(Cc1ccccc1)NC(=O)[C@H](CCCCN)NC(=O)[C@H](CO)NC(=O)[C@@H](NC(=O)[C@H](CC(=O)O)NC(=O)[C@H](CO)NC(=O)[C@@H](NC(=O)[C@H](Cc1ccccc1)NC(=O)[C@@H](NC(=O)CNC(=O)[C@H](CCC(N)=O)NC(=O)C(C)(C)NC(=O)[C@@H](N)Cc1c[nH]cn1)[C@@H](C)O)[C@@H](C)O)C(C)C)C(C)C)C(=O)N[C@@H](CCCCN)C(=O)NC(C)(C)C(=O)N[C@H](C(=O)N[C@@H](CCC(=O)O)C(=O)O)[C@@H](C)O [Peptide 423] (H-H[Aib]QGTFTSDVSK[αMeF]LDKK([AEEA-AEEA-γGlu-C18 diacid])RAQDFVRWLK[Aib]TE-OH; N-terminus assumed) | 10.58 | 168.1 | 8.65
CC(C)C[C@H](NC(=O)[C@H](Cc1c[nH]c2ccccc12)NC(=O)[C@H](CCCNC(=N)N)NC(=O)[C@@H](NC(=O)[C@H](Cc1ccccc1)NC(=O)[C@H](CC(=O)O)NC(=O)[C@H](CCC(N)=O)NC(=O)[C@H](C)NC(=O)[C@H](CCCNC(=N)N)NC(=O)[C@H](CCCCNC(=O)COCCOCCNC(=O)COCCOCCNC(=O)CC[C@H](NC(=O)CCCCCCCCCCCCCCCCC(=O)O)C(=O)O)NC(=O)[C@H](CCCCN)NC(=O)[C@H](CC(=O)O)NC(=O)[C@H](CC(C)C)NC(=O)[C@](C)(Cc1ccccc1)NC(=O)[C@H](CCCCN)NC(=O)[C@H](CO)NC(=O)[C@@H](NC(=O)[C@H](CC(=O)O)NC(=O)[C@H](CO)NC(=O)[C@@H](NC(=O)[C@H](Cc1ccccc1)NC(=O)[C@@H](NC(=O)CNC(=O)[C@H](CCC(N)=O)NC(=O)C(C)(C)NC(=O)[C@@H](N)Cc1c[nH]cn1)[C@@H](C)O)[C@@H](C)O)C(C)C)C(C)C)C(=O)N[C@@H](CCCCN)C(=O)N[C@@H](C)C(=O)NC(C)(C)C(=O)NCC(=O)O [Peptide 425] (H-H[Aib]QGTFTSDVSK[αMeF]LDKK([AEEA-AEEA-γGlu-C18 diacid])RAQDFVRWLKA[Aib]G-OH; N-terminus assumed) | 10.94 | 142.3 | 9.08

Now from value to compound:

pEC50 [1] | % Relative Potency Ratio [1] | pEC50 [2] | SMILES
10.06 | 4.1 | 9.75 | CC(C)C[C@H](NC(=O)[C@H](Cc1c[nH]c2ccccc12)NC(=O)[C@H](CCCNC(=N)N)NC(=O)[C@@H](NC(=O)[C@H](Cc1ccccc1)NC(=O)[C@H](CC(=O)O)NC(=O)[C@H](CCC(N)=O)NC(=O)[C@H](C)NC(=O)[C@H](CCCNC(=N)N)NC(=O)[C@H](CCCCNC(=O)COCCOCCNC(=O)COCCOCCNC(=O)CC[C@H](NC(=O)CCCCCCCCCCCCCCCCC(=O)O)C(=O)O)NC(=O)[C@H](CCCNC(=N)N)NC(=O)[C@H](CC(=O)O)NC(=O)[C@H](CC(C)C)NC(=O)[C@](C)(Cc1ccccc1)NC(=O)[C@H](CCCCN)NC(=O)[C@H](CO)NC(=O)[C@@H](NC(=O)[C@H](CC(=O)O)NC(=O)[C@H](CO)NC(=O)[C@@H](NC(=O)[C@H](Cc1ccccc1)NC(=O)[C@@H](NC(=O)CNC(=O)[C@H](CCC(N)=O)NC(=O)C(C)(C)NC(=O)[C@@H](N)Cc1c[nH]cn1)[C@@H](C)O)[C@@H](C)O)C(C)C)C(C)C)C(=O)N[C@@H](CC(C)C)C(=O)NC(C)(C)C(=O)N[C@H](C(=O)N[C@@H](CCC(=O)O)C(=O)O)[C@@H](C)O [Peptide 421] (H-H[Aib]QGTFTSDVSK[αMeF]LDRK([AEEA-AEEA-γGlu-C18 diacid])RAQDFVRWLL[Aib]TE-OH; N-terminus assumed)
10.56 | 8.9 | 9.91 | CC(C)C[C@H](NC(=O)[C@H](Cc1c[nH]c2ccccc12)NC(=O)[C@H](CCCNC(=N)N)NC(=O)[C@@H](NC(=O)[C@H](Cc1ccccc1)NC(=O)[C@H](CC(=O)O)NC(=O)[C@H](CCC(N)=O)NC(=O)[C@H](C)NC(=O)[C@H](CCCNC(=N)N)NC(=O)[C@H](CCCCNC(=O)COCCOCCNC(=O)COCCOCCNC(=O)CC[C@H](NC(=O)CCCCCCCCCCCCCCCCC(=O)O)C(=O)O)NC(=O)[C@H](CCCNC(=N)N)NC(=O)[C@H](CC(=O)O)NC(=O)[C@H](CC(C)C)NC(=O)[C@](C)(Cc1ccccc1)NC(=O)[C@H](CCCCN)NC(=O)[C@H](CO)NC(=O)[C@@H](NC(=O)[C@H](CC(=O)O)NC(=O)[C@H](CO)NC(=O)[C@@H](NC(=O)[C@H](Cc1ccccc1)NC(=O)[C@@H](NC(=O)CNC(=O)[C@H](CCC(N)=O)NC(=O)C(C)(C)NC(=O)[C@@H](N)Cc1c[nH]cn1)[C@@H](C)O)[C@@H](C)O)C(C)C)C(C)C)C(=O)N[C@@H](CC(C)C)C(=O)NC(C)(C)C(=O)N[C@H](C(=O)N[C@@H](CCC(=O)O)C(N)=O)[C@@H](C)O [Peptide 422] (H-H[Aib]QGTFTSDVSK[αMeF]LDRK([AEEA-AEEA-γGlu-C18 diacid])RAQDFVRWLL[Aib]TE-NH2; N-terminus assumed)
10.81 | 16.5 | 9.89 | CC(C)C[C@H](NC(=O)[C@H](Cc1c[nH]c2ccccc12)NC(=O)[C@H](CCCNC(=N)N)NC(=O)[C@@H](NC(=O)[C@H](Cc1ccccc1)NC(=O)[C@H](CC(=O)O)NC(=O)[C@H](CCC(N)=O)NC(=O)[C@H](C)NC(=O)[C@H](CCCNC(=N)N)NC(=O)[C@H](CCCCNC(=O)COCCOCCNC(=O)COCCOCCNC(=O)CC[C@H](NC(=O)CCCCCCCCCCCCCCCCC(=O)O)C(=O)O)NC(=O)[C@H](CCCCN)NC(=O)[C@H](CC(=O)O)NC(=O)[C@H](CC(C)C)NC(=O)[C@](C)(Cc1ccccc1)NC(=O)[C@H](CCCCN)NC(=O)[C@H](CO)NC(=O)[C@@H](NC(=O)[C@H](CC(=O)O)NC(=O)[C@H](CO)NC(=O)[C@@H](NC(=O)[C@H](Cc1ccccc1)NC(=O)[C@@H](NC(=O)CNC(=O)[C@H](CCC(N)=O)NC(=O)C(C)(C)NC(=O)[C@@H](N)Cc1c[nH]cn1)[C@@H](C)O)[C@@H](C)O)C(C)C)C(C)C)C(=O)N[C@@H](CC(C)C)C(=O)NC(C)(C)C(=O)N[C@H](C(=O)N[C@@H](CCCCN)C(=O)O)[C@@H](C)O [Peptide 424] (H-H[Aib]QGTFTSDVSK[αMeF]LDKK([AEEA-AEEA-γGlu-C18 diacid])RAQDFVRWLL[Aib]TK-OH; N-terminus assumed)
